Literature values, collected in paper PMC8815272 (The Journal of Supercritical Fluids, 2022).
Counter-ions that a name gives are not always drawn. Like-named read-outs stand apart in the source and are kept apart here.

Conditions: cited from earlier work
[1] = SC-CO2, 12.2–35.5 MPa, 308–348 K
[2] = SC-CO2, 12.16–35.46 MPa, 308–348 K
[3] = SC-CO2, 9.2–24.4 MPa, 308.2–328.2 K
[4] = SC-CO2, 15.5–30.5 MPa, 315–345 K
[5] = SC-CO2, 18.3–33.5 MPa, 308–328 K
[6] = SC-CO2, 12–30 MPa, 308.2–338.2 K
[7] = SC-CO2, 12–33 MPa, 308.15–338.15 K
[8] = SC-CO2, 12–27 MPa, 308.15–338.15 K
[9] = SC-CO2, 10–30.3 MPa, 308.2–328.2 K
[10] = SC-CO2, 12–27 MPa, 308.2–338.2 K
[11] = SC-CO2, 12–30 MPa, 313.2–343.2 K
[12] = SC-CO2, 9–25 MPa, 308.2–328.2 K
[13] = SC-CO2, 10–26 MPa, 308.2–328.2 K
[14] = SC-CO2, 14.9–25.5 MPa, 303–323 K

## CC[C@H]1OC(=O)[C@H](C)[C@@H](O[C@H]2C[C@@](C)(OC)[C@@H](O)[C@H](C)O2)[C@H](C)[C@@H](O[C@@H]2O[C@H](C)C[C@H](N(C)C)[C@H]2O)[C@](C)(O)C[C@@H](C)CN(C)[C@H](C)[C@@H](O)[C@]1(C)O [Azithromycin]
[1]
  Crossover (MPa): 13.8–14 MPa
  Mole fraction (y): 6.9 × 10^−5 to 2.73 × 10^−4

## CC(C)c1c(C(=O)Nc2ccccc2)c(-c2ccccc2)c(-c2ccc(F)cc2)n1CC[C@@H](O)C[C@@H](O)CC(=O)O [Atorvastatin]
[2]
  Crossover (MPa): 17 MPa
  Mole fraction (y): 1.12 × 10^−6 to 1.45 × 10^−3

## CC(C(=O)O)c1ccc(CC2CCCC2=O)cc1 (stereo not drawn) [Loxoprofen]
SC-CO2, 12–40 MPa, 308–338 K
  Crossover (MPa): 20 MPa
  Mole fraction (y): 1.04 × 10^−5 to 1.28 × 10^−3

## CCC[C@@H]1C[C@@H](C(=O)N[C@@H]([C@H]2O[C@H](SC)[C@H](O)[C@@H](O)[C@H]2O)[C@H](C)Cl)N(C)C1 [Clindamycin]
[1]
  Crossover (MPa): 14.8–15.2 MPa
  Mole fraction (y): 1.77 × 10^−4 to 1.146 × 10^−3

## CC(C(=O)O)c1cccc(Oc2ccccc2)c1 (stereo not drawn) [Fenoprofen]
SC-CO2, 12–40 MPa, 308–338 K
  Crossover (MPa): 16 MPa
  Mole fraction (y): 2.01 × 10^−5 to 4.20 × 10^−3

## O=C1C=CC(=O)c2c(O)cccc21 [Juglone, 5-hydroxy-1,4-naphthoquinone]
[3]
  Crossover (MPa): 21–22 MPa
  Mole fraction (y): 2.0 × 10^−5 to 1.6 × 10^−3

## CCC(=O)O[C@]1(C(=O)CCl)[C@@H](C)C[C@H]2[C@@H]3CCC4=CC(=O)C=C[C@]4(C)[C@@]3(F)[C@@H](O)C[C@@]21C [Clobetasol Propionate]
[4]
  Crossover (MPa): 24.5 MPa
  Mole fraction (y): 1 × 10^−6 to 2.1 × 10^−5

## C[C@]12C/C(=C/O)C(=O)C[C@@H]1CC[C@@H]1[C@@H]2CC[C@@]2(C)[C@H]1CC[C@]2(C)O [Oxymetholone]
[5]
  Crossover (MPa): 18 MPa
  Mole fraction (y): 1.6 × 10^−5 to 1.49 × 10^−4

## Cc1ccc(C(=O)c2ccc(CC(=O)O)n2C)cc1 [Tolmetin]
SC-CO2, 12–40 MPa, 308–338 K
  Crossover (MPa): 16 MPa
  Mole fraction (y): 5.00 × 10^−5 to 2.59 × 10^−3

## CCC(C)(C)C(=O)O[C@H]1C[C@@H](C)C=C2C=C[C@H](C)[C@H](CC[C@@H]3C[C@@H](O)CC(=O)O3)[C@H]21 [Simvastatin]
[2]
  Crossover (MPa): 17 MPa
  Mole fraction (y): 2 × 10^−6 to 5.35 × 10^−4

## CC[C@H]1OC(=O)[C@H](C)[C@@H](O[C@H]2C[C@@](C)(OC)[C@@H](O)[C@H](C)O2)[C@H](C)[C@@H](O[C@@H]2O[C@H](C)C[C@H](N(C)C)[C@H]2O)[C@](C)(OC)C[C@@H](C)C(=O)[C@H](C)[C@@H](O)[C@]1(C)O [Clarithromycin]
[1]
  Crossover (MPa): 15–15.2 MPa
  Mole fraction (y): 1.31 × 10^−4 to 3.28 × 10^−4

## CCN(CC)c1ccc2cc(-c3nc4ccccc4[nH]3)c(=O)oc2c1 [Coumarin-7]
SC-CO2, 9–33 MPa, 308–338 K
  Crossover (MPa): 13–16 MPa
  Mole fraction (y): 4.15 × 10^−6 to 1.00 × 10^−5

## CN1CCC(=C2c3ccccc3CC(=O)c3sccc32)CC1 [Ketotifen fumarate]
[6]
  Crossover (MPa): 20 MPa
  Mole fraction (y): 2.11 × 10^−5 to 1.07 × 10^−3

## C[C@@H](O[C@H]1OCCN(Cc2n[nH]c(=O)[nH]2)[C@H]1c1ccc(F)cc1)c1cc(C(F)(F)F)cc(C(F)(F)F)c1 [Aprepitant]
[7]
  Crossover (MPa): 15–18 MPa
  Mole fraction (y): 4.50 × 10^−6 to 7.67 × 10^−5

## CCOC(=O)N1CCC(=C2c3ccc(Cl)cc3CCc3cccnc32)CC1 [Loratadine]
[8]
  Crossover (MPa): 18–21 MPa
  Mole fraction (y): 4.50 × 10^−6 to 1.30 × 10^−3

## CC(C)n1c(/C=C/C(O)CC(O)CC(=O)O)c(-c2ccc(F)cc2)c2ccccc21 (stereo not drawn) [Fluvastatin]
[2]
  Crossover (MPa): 17 MPa
  Mole fraction (y): 5 × 10^−6 to 6 × 10^−4

## CCn1cc(C(=O)O)c(=O)c2cc(F)c(N3CCNCC3)cc21 [Norfloxacin]
[9]
  Mole fraction (y): 1.4 × 10^−6 to 24.4 × 10^−6

## Cc1ccc(NC(=O)c2ccc(CN3CCN(C)CC3)cc2)cc1Nc1nccc(-c2cccnc2)n1 [Imatinib mesylate]
[10]
  Crossover (MPa): 18–21 MPa
  Mole fraction (y): 1.0 × 10^−7 to 4.4 × 10^−6

## Cn1cnc([N+](=O)[O-])c1Sc1ncnc2nc[nH]c12 [Azathioprine]
SC-CO2, 12–27 MPa, 308–338 K
  Crossover (MPa): 12–15 MPa
  Mole fraction (y): 0.27 × 10^−5 to 1.83 × 10^−5

## CC(C)c1nc(N(C)S(C)(=O)=O)nc(-c2ccc(F)cc2)c1/C=C/[C@@H](O)C[C@@H](O)CC(=O)O [Rosuvastatin]
[2]
  Crossover (MPa): 17 MPa
  Mole fraction (y): 3 × 10^−6 to 2.44 × 10^−4

## CC(C)N1c2ccccc2C(C)(C)C12C=Nc1c(cc(N3CCc4ccccc43)c3ccccc13)O2 (stereo not drawn) [1,3-dihydro-3,3-dimethyl-1-isopropyl-6-(2,3)-(dihydroindole-1-yl)spiro[2 H-indole-2,3 − 3 H-naphtho[2,1-b][1,4]oxazine]]
SC-CO2, 10–26 MPa, 308–328 K
  Crossover (MPa): 17 MPa
  Mole fraction (y): 2.2 × 10^-7 to 5.05 × 10^-6

## CC(C(=O)O)c1ccc(-c2ccccc2)c(F)c1 (stereo not drawn) [Flurbiprofen]
SC-CO2, 8–25 MPa, 303–323 K
  Crossover (MPa): 12 MPa
  Mole fraction (y): 2.170 × 10^-5 to 19.683 × 10^-5

## CCCCc1oc2ccccc2c1C(=O)c1cc(I)c(OCCN(CC)CC)c(I)c1 [Amiodarone hydrochloride]
[11]
  Crossover (MPa): 19 MPa
  Mole fraction (y): 2.510 × 10^−5 to 1.012 × 10^−3

## Nc1nc(N)c2nc(-c3ccccc3)c(N)nc2n1 [Triamterene, 2,4,7-Triamino-6-phenylpteridine]
SC-CO2, 12–27 MPa, 308–338 K
  Crossover (MPa): 19.2–19.5 MPa
  Mole fraction (y): 0.03 × 10^−5 to 2.89 × 10^−5

## CC[C@H](C)C(=O)O[C@H]1C[C@@H](C)C=C2C=C[C@H](C)[C@H](CC[C@@H]3C[C@@H](O)CC(=O)O3)[C@H]21 [Lovastatin]
[2]
  Crossover (MPa): 17 MPa

## C[C@@H]1CC[C@H]2[C@@H](C)C(=O)O[C@@H]3O[C@@]4(C)CC[C@@H]1[C@]32OO4 [Artemisinin]
SC-CO2, 10–25 MPa, 303–328 K
  Crossover (MPa): 13–17 MPa
  Mole fraction (y): 10^-4 to 10^-3

## O=C(O)c1cc(-c2ccc(F)cc2F)ccc1O [Diflunisal, 5-(2,4-difluorophenyl)− 2-hydroxybenzoic acid]
[12]
  Crossover (MPa): 15 MPa
  Mole fraction (y): 0.54 × 10^-6 to 8.07 × 10^-6

## COc1ccc2nc([S@@+]([O-])Cc3ncc(C)c(OC)c3C)[nH]c2c1 [Esomeprazole]
[10]
  Crossover (MPa): 22 MPa
  Mole fraction (y): 1.11 × 10^-5 to 9.10 × 10^-4

## CCN(CC)CCNC(=O)c1c(C)[nH]c(/C=C2\C(=O)Nc3ccc(F)cc32)c1C [Sunitinib malate]
SC-CO2, 12–27 MPa, 308–338 K
  Mole fraction (y): 0.5 × 10^−5 to 8.56 × 10^−5

## CC(C)(O)C(=O)c1ccc(OCCO)cc1 [Irgacure® 2959, 2-Hydroxy-4'-(2-hydroxyethoxy)− 2-methylpropiophenone]
[13]
  Crossover (MPa): 14 MPa
  Mole fraction (y): 5.17 × 10^−6 to 2.83 × 10^−4

## CNC(=O)c1cc(Oc2ccc(NC(=O)Nc3ccc(Cl)c(C(F)(F)F)c3)cc2)ccn1 [Sorafenib tosylate]
SC-CO2, 12–27 MPa, 308–338 K
  Mole fraction (y): 0.68 × 10^−6 to 12.57 × 10^−6

## CC(=O)OCC(=O)[C@H]1CC[C@H]2[C@@H]3CCC4=CC(=O)CC[C@]4(C)[C@H]3CC[C@]12C [Desoxycorticosterone acetate]
[4]
  Crossover (MPa): 24.5 MPa
  Mole fraction (y): 5 × 10^−6 to 1.03 × 10^−4

## CC1COc2c(N3CCN(C)CC3)c(F)cc3c(=O)c(C(=O)O)cn1c23 (stereo not drawn) [Ofloxacin]
[9]
  Mole fraction (y): 0.4 × 10^−6 to 1.3 × 10^−6

## C=CC1=C(C(=O)O)N2C(=O)[C@@H](NC(=O)/C(=N\OCC(=O)O)c3csc(N)n3)[C@H]2SC1 [Cefixime trihydrate]
[5]
  Mole fraction (y): 1.6 × 10^−7 to 3.02 × 10^−7

## CN1CCC(=C2c3ccccc3C=Cc3ccccc32)CC1 [Cyproheptadine]
SC-CO2, 16–40 MPa, 308–338 K
  Crossover (MPa): 20 MPa
  Mole fraction (y): 3.35 × 10^−5 to 3.09 × 10^−3

## Cc1cnc(NC(=O)C2=C(O)c3ccccc3S(=O)(=O)N2C)s1 [Meloxicam sodium]
[14]
  Crossover (MPa): 15–17 MPa
  Mole fraction (y): 4.41 × 10^−6 to 12.76 × 10^−6

## CC[C@H]1OC(=O)[C@H](C)[C@@H](O[C@H]2C[C@@](C)(OC)[C@@H](O)[C@H](C)O2)[C@H](C)[C@@H](O[C@@H]2O[C@H](C)C[C@H](N(C)C)[C@H]2O)[C@](C)(O)C[C@@H](C)C(=O)[C@H](C)[C@@H](O)[C@]1(C)O [Erythromycin]
[1]
  Crossover (MPa): 16.8–17 MPa
  Mole fraction (y): 4.3 × 10^−5 to 3.12 × 10^−4

## CS(=O)(=O)OCCCCOS(C)(=O)=O [Busulfan]
SC-CO2, 12–40 MPa, 308–338 K
  Crossover (MPa): 16 MPa
